According to US12194021B2, “Modified herbal compositions for neuromodulation” (University of Southern California, priority 2021, dated 2025):

Tests used:
TG-mice [1] = test: Open field test of locomotor activity; format: in vivo; settings: 3 months
Method: 5) Locomotor assay: To measure the locomotor activity, the numbers of total entries were measured for each animal. Statistical differences were determined using ANOVA. These experiments will determine the effects of D-P on anxiety levels.
DHM-Piperidine Complex (D-P) can replicate DHM effects to improve behavioral impairment in TG-mice. We examined the effect of D-P on AD symptom-like behavior in aged TG2576 mice compared with age-matched wt mice. Mice were divided into three groups: (1) C57BL/6 wt male mice (2% sucrose, oral administration), (2) TG-mice (2% sucrose, oral administration), and (3) TG-mice with D-P (2 mg/kg in 2% sucrose), respectively. After 3 months of treatment, mice were examined with behavioral assays.
Locomotor activity was assayed with open field test. Running distance is one of the parameters quantifying locomotor activity (FIG. 4A). Wt control mice ran 882±55 cm during 10 min. TG-mice ran a much shorter distance (255±12 cm), while the running distance of TG-mice treated with D-P increased to 611±99 cm. […] D-P treatment in TG-mice increased rearing (19.3±2.0 times), times to explore the center (1.3±2.0 times), and duration to stay at the center (0.13±0.03 min). […] Daily oral D-P treatment for TG-mice improves locomotor activity and increased exploring activity, an instinct of animals. Anxiety was assayed with the EPM (FIG. 4D). The wt control spent 48.5±7.5% of total time in open arms and 33.5±3.2% in closed arms.

[2] = Six-month long-term toxicity evaluation (metabolic rate); format: in vivo; settings: male Sprague Dawley rats, gavage 1, 10 and 500 mg/kg daily, six months
Method: To evaluate D-P's safety, we tested dosages of 1, 10, and 500 mg/kg (500 time high concentration) of D-P in rats. Sprague Dawley rats, male, body weight starting at 175±5 g, were used in this study. Control group rats were gavaged SUC 20 ml/kg, and D-P group rats were gavaged 1, 10, and 500 mg/kg D-P every day for six months.

gephyrin = test: Gephyrin level measurement (Western blot, hippocampus and cortex); format: in vivo; settings: TG-mice, 1 mg/kg oral daily
Method: 3) Gephyrin level measurement: Gephyrin amounts in control (group housing), AD, and AD+D-P group were determined. All mice brains were taken and prepared for assays. SDS-PAGE and Western blot analysis. Proteins were separated on SDS-polyacrylamide gels (Sigma) using the Bio-Rad Mini-Protean 3 cell system. Proteins were transferred on a polyvinylidene difluoride (PDVF) membrane (Sigma) and blocked with 4% non-fat dry milk. Blots were incubated overnight at 4° C. with rabbit anti-gephyrin (Santa Cruz, 1:200) and mouse anti-β-actin (Sigma, 1:1000), followed by HRP-conjugated secondary antibodies (1:5000) for two hours at room temperature. Bands were detected using ECL detection kit (Sigma) and exposed to X-ray films. Bands were analyzed by densitometry using ImageQuant5.2 (Molecular Dynamics), normalized to the corresponding β-actin signal and compared.
Gephyrin is the key scaffolding protein that organizes the inhibitory postsynaptic receptor density involving GABAAR clustering at postsynaptic sites. Gephyrin not only has a structural function at GABAergic synaptic sites, but also plays a crucial role in synaptic dynamics. Therefore, we examined the protein levels of gephyrin in the hippocampus (left) and cortex (right) in the TG-mice and in D-P treated TG-mice compared to wt control. […]

TG-mice [3] = test: Elevated plus maze (EPM), anxiety in TG-mice; format: in vivo; settings: 2 mg/kg, 3 months
Text: 2) Whole-Cell Patch-Clamp Recordings from Brain Slices. Transverse slices (400 lm) of dorsal hippocampus were obtained from wt and TG-SwDI mice (male, 20 months old) using a vibratome (VT 100; Technical Products International). Slices were perfused continuously with artificial CSF (ACSF) composed of the following (in mM): 125 NaCl, 2.5 KCl, 2 CaCl2, 2 MgCl2, 26 NaHCO3, and 10 D-glucose. The ACSF was bubbled continuously with 95% O2/5% CO2 to ensure adequate oxygenation of slices and a pH of 7.4 and kept at 34±0.5° C. for perfusion. TTX (0.5 μM), APV (40 μM), CNQX (10 μM), and CGP54626 (1 μM, GABABR antagonist) were added to ACSF to pharmacologically isolate GABAAR-mediated mIPSCs. […] Animals were placed on the central area of the maze, tested for 5 min and video recorded. The following measures were scored: number of entries into open arms, closed arms, or center platform and time spent in each of these areas. […]
6) The elevated plus maze assay (EPM) was performed in a quiet and dark room with only a low power red light. […] were placed on the central area of the maze, and their behavior video recorded for 5 min. The number of entries into open arms, closed arms, or center platform and time spent in each of these areas were scored during off-line analysis. […]
Locomotor activity was assayed with open field test. Running distance is one of the parameters quantifying locomotor activity (FIG. 4A). […]

Water solubility = format: physicochemical; settings: compared with natural DHM

piperidin-1-ium (2R,3R)-2-(3,4-dihydroxy-5-oxidophenyl)-3,5-dihydroxy-4-oxochroman-7-olate [D-P]
running distance (TG-mice [1]; 2 mg/kg in 2% sucrose, 10 min, untreated TG 255±12): 611±99 cm
duration to stay at the center (TG-mice [1]; 2 mg/kg, untreated TG 0.02±0.01): 0.13 ± 0.03 min
times to explore the center (TG-mice [1]; 2 mg/kg, untreated TG 0.2±0.1): 1.3±2.0 times
rearing (TG-mice [1]; 2 mg/kg, untreated TG 12.5±2.1): 19.3±2.0 times
metabolic rate [2]: did not alter the metabolic rate
gephyrin levels (gephyrin; 1 month): partly recovered
gephyrin levels (gephyrin; 3 months): restored to control levels
time in open and closed arms (EPM) (TG-mice [3]): spent a similar amount of time in each arm
water solubility (Water solubility): can be dissolved into water
